The results in this text go back to ChEMBL document CHEMBL5532656, “Novel ligustilide derivatives target quorum sensing system LasR/LasB and relieve inflammatory response against Pseudomonas aeruginosa infection” (Eur J Med Chem, 2024).

The term inhibition denotes how much of the control response was suppressed. In general, IC50 refers to the concentration that inhibits the measured activity by half.

Each structure is given as a SMILES string. Active and inactive are the calls of the source. The rule behind the calls is not given here.

The nature of data set [1]: Toxicity in Zebra fish AB embryo assessed as viability of zebrafish larvae at <50 uM measured upto 120 hrs post fertilization by stereomicroscopic analysis. The arrangement: species or system Danio rerio.
The test system of data set [2] is RAW264.7. In words: Cytotoxicity against mouse RAW264.7 cells assessed as reduction in cell viability at <20 uM measured after 24 hrs by MTT assay. Format: functional, cell-based.
The subject of data set [3] is RAW264.7. In words: Inhibition of JNK signaling in mouse RAW264.7 cells assessed as reduction in LPS induced JNK phosphorylation by Western blot analysis. The class given is cell-based.
The next data set relates to Mus musculus. Kind of data set: Anti-inflammatory activity against LPS-induced acute lung injury mouse model assessed as reduction in IL-1 beta mRNA expression at 1 to 2 mg/kg, po preincubated for 4 hrs followed by LPS stimulation and measured after 6 hrs. The class given is functional, organism-based. The conditions noted are these: dose 1-2 mg/kg, time 10.0 hrs.
Data set [4] concerns Erythrocyte. Kind of data set: Hemolytic activity in mouse erythrocytes assessed as hemolysis at 0.625 to 10 micromol/L measured after 4 hrs by microplate reader method. The class given is toxicity, cell-based. Particulars: dose 0.625-10 µmol/L.
A short description of data set [5]: Cytotoxicity against African green monkey Vero cells assessed as reduction in cell viability at 50 uM measured after 24 hrs by MTT assay. The class given is toxicity, cell-based. The conditions noted are these: chlorocebus sabaeus.
Data set [6] concerns RAW264.7. Kind of data set: Antiinflammatory activity in LPS-induced mouse RAW264.7 cells assessed as inhibition of IL-1 beta production pretreated for 3 hrs followed by LPS stimulation and measured after 24 hrs by ELISA method. Format: functional, cell-based. Background: An ELISA detects its analyte on a solid surface through an enzyme-linked reagent.
Data set [7] deals with RAW264.7. In words: Antiinflammatory activity in LPS-induced mouse RAW264.7 cells assessed as inhibition of IkappaB-alpha expression pretreated for 3 hrs followed by LPS stimulation and measured after 24 hrs by Western blot analysis. The class given is functional, cell-based. Particulars: dose 1.25-10 µmol/L, time 27.0 hrs. For orientation: Immunoblotting shows a protein as a band on a membrane.

The next data set concerns Pseudomonas aeruginosa. In words: Anti-biofilm activity against Pseudomonas aeruginosa PAO1 assessed as suppression of biofilm formation at 1.25 to 10 uM incubated for 24 hrs by PI staining based confocal fluorescence microscopy based analysis. The class given is functional, organism-based. Particulars: dose 1.25-10 µM.
Data set [8] is described as follows: Toxicity in BALB/c mouse assessed as effect on lung at 2 to 4 mg/kg, PO measured after 7 days by H and E staining based analysis. Format: organism-based. Particulars: in vivo, 168 h, dose 2-4 mg/kg, time 7 day.
In data set [9] the test system is Erythrocyte. Kind of data set: Hemolytic activity in human erythrocytes assessed as hemolysis at 0.625 to 10 micromol/L measured after 4 hrs by microplate reader method. Particulars: dose 0.625-10 µmol/L. Format: toxicity, cell-based.
Data set [10] is described as follows: Inhibition of quorum sensing system in Pseudomonas aeruginosa PAO1-lasB-gfp at 10 uM relative to control.
The nature of data set [11]: Toxicity in BALB/c mouse assessed as effect on body weight at 2 to 4 mg/kg, IG. The class given is organism-based. The conditions noted are these: in vivo, po, dose 2-4 mg/kg.
Data set [12] is described as follows: Inhibition of quorum sensing system in Pseudomonas aeruginosa PAO1 assessed as reduction in elastase level using BODIPY-FL-labeled DQ elastin conjugate as substrate measured after 24 hrs by fluorometric method.
Data set [13] in a line: Toxicity in BALB/c mouse assessed as effect on heart at 2 to 4 mg/kg, PO measured after 7 days by H and E staining based analysis. Particulars: in vivo, 168 h, dose 2-4 mg/kg, time 7 day. Format: organism-based.

For `CCCCC1(O)C2=C(C=CCC2)C(=O)N1Cc1ccc(C(F)(F)F)cc1` (stereo unspecified), the Activity entry in data set [1] was “Non-Toxic”; in the data set on Erythrocyte [4], “Toxic”; in data set [5] it was “Toxic”; in the data set with RAW264.7 [7], “Dose-Dependent Effect”; with Pseudomonas aeruginosa it was “Dose-Dependent Effect”; in data set [8], “Non-Toxic”. In addition, the Activity result in the data set with Erythrocyte [9] is given as “Toxic”; in data set [11] it was “Toxic”; in data set [13], “Non-Toxic”. Also, in the data set on RAW264.7 [2], the outcome was inactive. Further, in the data set on RAW264.7 [3], the inhibition result is “Active”. Besides, the outcome with Mus musculus was Active. In addition, the 50% inhibitory concentration (IC50) in the data set with RAW264.7 [6] came out at 18.2 µM; in [12], 7.3 µM. For the same compound, the inhibition is 51.6% in [10] and “Dose-Dependent Effect” in [12] (dose 0.625-10 µM).
